In patent publication US10981894B2, “Melanocortin subtype-2 receptor (MC2R) antagonists and uses thereof” (Crinetics Pharmaceuticals, Inc., priority 2018, dated 2021):

Target: hMC2 receptor (Homo sapiens, UniProt Q01718)
Test: hMC2 membrane binding assay ([125I]ACTH (1-39) Tyr23, SPA)
Design: scale not given here
Settings: crude hMC2R membranes from CRE-bla-CHO-K1 cells expressing hMC2 receptor and hMRAP; [125I]ACTH (1-39) Tyr23 0.2 nM; 1.5 hours at room temperature; read-out: MC2R binding potency
Method in brief: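 Ki comes from non-linear regression of SPA scintillation counts. Displacement of 0.2 nM [125I]ACTH(1-39) Tyr23 by compound dose series (usually 0–10,000 nM final) ran 1.5 h at room temperature. Membranes came from CHO-K1 CRE-bla cells stably expressing hMC2R plus hMRAP, bead-coupled in pH 7.4 buffer with 0.2% BSA.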

Chain of hMC2 receptor (Q01718 whole entry): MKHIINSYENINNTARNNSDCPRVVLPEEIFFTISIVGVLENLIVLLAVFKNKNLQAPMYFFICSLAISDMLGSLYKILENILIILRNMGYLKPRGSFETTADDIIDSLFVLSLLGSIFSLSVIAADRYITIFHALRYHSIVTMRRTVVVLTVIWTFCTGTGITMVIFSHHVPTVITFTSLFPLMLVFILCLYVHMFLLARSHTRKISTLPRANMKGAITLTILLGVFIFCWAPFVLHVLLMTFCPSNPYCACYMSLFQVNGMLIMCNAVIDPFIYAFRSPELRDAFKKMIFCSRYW
Chain of hMC2 receptor (Q8TCY5 whole entry partner): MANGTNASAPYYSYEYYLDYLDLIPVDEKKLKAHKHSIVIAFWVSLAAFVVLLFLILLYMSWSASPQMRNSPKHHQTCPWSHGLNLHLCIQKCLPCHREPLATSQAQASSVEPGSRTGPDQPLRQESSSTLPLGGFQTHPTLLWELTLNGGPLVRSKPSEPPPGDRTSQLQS

In the case of `CCOc1ncccc1-c1ccc(N2CCN(C(=O)c3ccc(OC)nc3C(F)(F)F)C[C@H]2CC)c(C(=O)NCCNC)n1` [Compound 1-187, 2′-ethoxy-5-[(2R)-2-ethyl-4-[6-methoxy-2-(trifluoromethyl)pyridine-3-carbonyl]piperazin-1-yl]-N-[2-(methylamino)ethyl]-[2,3′-bipyridine]-6-carboxamide], the Ki is reported as < 10 nM.
In the case of `CCOc1ncccc1-c1ccc(N2CCN(C(=O)c3ccc(Cl)cc3C(F)(F)F)C[C@H]2CC)c(C(=O)NCC2=NCCN2)c1F` [Compound 1-188, 6-[(2R)-4-[4-chloro-2-(trifluoromethyl)benzoyl]-2-ethylpiperazin-1-yl]-N-[(4,5-dihydro-1H-imidazol-2-yl)methyl]-3-(2-ethoxypyridin-3-yl)-2-fluorobenzamide], the Ki is reported as < 10 nM.
In the case of `CCOc1ncccc1-c1ccc(N2CCN(C(=O)c3ccc(F)cc3C(F)F)C[C@H]2CC)c(C(=O)N[C@@H]2CCNC2)c1F` [Compound 1-189, 6-[(2R)-4-[2-(difluoromethyl)-4-fluorobenzoyl]-2-ethylpiperazin-1-yl]-3-(2-ethoxypyridin-3-yl)-2-fluoro-N-[(3R)-pyrrolidin-3-yl]benzamide], the Ki is reported as < 10 nM.
`CCOc1ncccc1-c1ccc(N2CCN(C(=O)c3ccc(Cl)cc3C(F)F)C[C@H]2CC)c(C(=O)N[C@@H]2CCNC2)c1F` [Compound 1-190, 6-[(2R)-4-[4-chloro-2-(difluoromethyl)benzoyl]-2-ethylpiperazin-1-yl]-3-(2-ethoxypyridin-3-yl)-2-fluoro-N-[(3R)-pyrrolidin-3-yl]benzamide] was tested, and the Ki was < 10 nM.
With `CCOc1ncccc1-c1ccc(N2CCN(C(=O)c3ccc(Cl)cc3C(F)(F)F)C[C@H]2CC)c(C(=O)NC2CNC2)c1F` [Compound 1-198, N-(azetidin-3-yl)-6-[(2R)-4-[4-chloro-2-(trifluoromethyl)benzoyl]-2-ethylpiperazin-1-yl]-3-(2-ethoxypyridin-3-yl)-2-fluorobenzamide] the Ki was < 10 nM.
For `CCOc1ncccc1-c1ccc(N2CCN(C(=O)c3ccc(Cl)cc3C(F)(F)F)C[C@H]2CC)c(C(=O)N[C@@H]2CCN(C)C2)c1F` [Compound 1-199, 6-[(2R)-4-[4-chloro-2-(trifluoromethyl)benzoyl]-2-ethylpiperazin-1-yl]-3-(2-ethoxypyridin-3-yl)-2-fluoro-N-[(3R)-1-methylpyrrolidin-3-yl]benzamide], the Ki was < 10 nM.
In the case of `CCOc1ncccc1-c1ccc(N2CCN(C(=O)c3ccc(Cl)cc3C(F)(F)F)C[C@H]2CC)c(C(=O)N[C@H]2CCNC2)c1F` [Compound 1-200, 6-[(2R)-4-[4-chloro-2-(trifluoromethyl)benzoyl]-2-ethylpiperazin-1-yl]-3-(2-ethoxypyridin-3-yl)-2-fluoro-N-[(3S)-pyrrolidin-3-yl]benzamide], the Ki is reported as < 10 nM.
For `CCOc1ncccc1-c1ccc(N2CCN(C(=O)c3ccc(Cl)cc3C(F)(F)F)C[C@H]2CC)c(C(=O)N[C@H]2CCN(C)C2)c1F` [Compound 1-201, 6-[(2R)-4-[4-chloro-2-(trifluoromethyl)benzoyl]-2-ethylpiperazin-1-yl]-3-(2-ethoxypyridin-3-yl)-2-fluoro-N-[(3S)-1-methylpyrrolidin-3-yl]benzamide], the Ki was < 10 nM.
In the case of `CCOc1ncccc1-c1ccc(N2CCN(C(=O)c3ccc(OC)cc3C(F)(F)F)C[C@H]2CC)c(C(=O)NC2CNC2)c1F` [Compound 1-202, N-(azetidin-3-yl)-3-(2-ethoxypyridin-3-yl)-6-[(2R)-2-ethyl-4-[4-methoxy-2-(trifluoromethyl)benzoyl]piperazin-1-yl]-2-fluorobenzamide], the Ki is reported as < 10 nM.
In the case of `CCOc1ncccc1-c1ccc(N2CCN(C(=O)c3ccc(OC)cc3C(F)(F)F)C[C@H]2CC)c(C(=O)NC2CN(C)C2)c1F` [Compound 1-203, 3-(2-ethoxypyridin-3-yl)-6-[(2R)-2-ethyl-4-[4-methoxy-2-(trifluoromethyl)benzoyl]piperazin-1-yl]-2-fluoro-N-(1-methylazetidin-3-yl)benzamide], the Ki is reported as < 10 nM.
For `CCOc1ccccc1-c1ccc(N2CCN(C(=O)c3ccc(Cl)cc3C(F)(F)F)C[C@H]2CC)c(C(=O)N[C@@H]2CCN(C)C2)n1` [Compound 1-206, 3-[(2R)-4-[4-chloro-2-(trifluoromethyl)benzoyl]-2-ethylpiperazin-1-yl]-6-(2-ethoxyphenyl)-N-[(3R)-1-methylpyrrolidin-3-yl]pyridine-2-carboxamide], the Ki was < 10 nM.
For `CCOc1ccc(C(=O)N2CCN(c3ccc(-c4cccnc4OCC)nc3C(=O)NCCN(C)C)[C@H](CC)C2)c(C(F)(F)F)n1` [Compound 1-207, N-[2-(dimethylamino)ethyl]-2′-ethoxy-5-[(2R)-4-[6-ethoxy-2-(trifluoromethyl)pyridine-3-carbonyl]-2-ethylpiperazin-1-yl]-[2,3′-bipyridine]-6-carboxamide], the Ki was < 10 nM.
For `CCOc1ccccc1-c1ccc(N2CCN(C(=O)c3ccc(Cl)cc3C(F)(F)F)C[C@H]2CC)c(C(=O)NCCNC)n1` [Compound 1-208, 3-[(2R)-4-[4-chloro-2-(trifluoromethyl)benzoyl]-2-ethylpiperazin-1-yl]-6-(2-ethoxyphenyl)-N-[2-(methylamino)ethyl]pyridine-2-carboxamide], the Ki was < 10 nM.
For `CCOc1ccccc1-c1ccc(N2CCN(C(=O)c3ccc(Cl)cc3C(F)(F)F)C[C@H]2CC)c(C(=O)N[C@@H]2CCNC2)n1` [Compound 1-209, 3-[(2R)-4-[4-chloro-2-(trifluoromethyl)benzoyl]-2-ethylpiperazin-1-yl]-6-(2-ethoxyphenyl)-N-[(3R)-pyrrolidin-3-yl]pyridine-2-carboxamide], the Ki was < 10 nM.
`CCOc1ncccc1-c1ccc(N2CCN(C(=O)c3ccc(Cl)cc3C(F)F)C[C@H]2CC)c(C(=O)NCCN(C)C)n1` [Compound 1-210, 5-[(2R)-4-[4-chloro-2-(difluoromethyl)benzoyl]-2-ethylpiperazin-1-yl]-N-[2-(dimethylamino)ethyl]-2′-ethoxy-[2,3′-bipyridine]-6-carboxamide] was tested, and the Ki was < 10 nM.
`CCOc1ncccc1-c1ccc(N2CCN(C(=O)c3ccc(Cl)cc3C(F)(F)F)C[C@H]2CC)c(C(=O)NC2CNC2)n1` [Compound 1-211, N-(azetidin-3-yl)-5-[(2R)-4-[4-chloro-2-(trifluoromethyl)benzoyl]-2-ethylpiperazin-1-yl]-2′-ethoxy-[2,3′-bipyridine]-6-carboxamide] was tested, and the Ki was < 10 nM.
For `CCOc1ncccc1-c1ccc(N2CCN(C(=O)c3ccc(Cl)cc3C(F)(F)F)C[C@H]2CC)c(C(=O)NC2CN(C)C2)n1` [Compound 1-212, 5-[(2R)-4-[4-chloro-2-(trifluoromethyl)benzoyl]-2-ethylpiperazin-1-yl]-2′-ethoxy-N-(1-methylazetidin-3-yl)-[2,3′-bipyridine]-6-carboxamide], the Ki was < 10 nM.
`CCOc1ncccc1-c1ccc(N2CCN(C(=O)c3ccc(Cl)cc3C(F)F)C[C@H]2CC)c(C(=O)NCCNC)n1` [Compound 1-213, 5-[(2R)-4-[4-chloro-2-(difluoromethyl)benzoyl]-2-ethylpiperazin-1-yl]-2′-ethoxy-N-[2-(methylamino)ethyl]-[2,3′-bipyridine]-6-carboxamide] was tested, and the Ki was < 10 nM.
For `CCOc1ncccc1-c1ccc(N2CCN(C(=O)c3ccc(Cl)cc3C(F)(F)F)C[C@H]2CC)c(C(=O)N[C@H]2CCNC2)n1` [Compound 1-214, 5-[(2R)-4-[4-chloro-2-(trifluoromethyl)benzoyl]-2-ethylpiperazin-1-yl]-2′-ethoxy-N-[(3S)-pyrrolidin-3-yl]-[2,3′-bipyridine]-6-carboxamide], the Ki was < 10 nM.
For `CCOc1ncccc1-c1ccc(N2CCN(C(=O)c3ccc(Cl)cc3C(F)(F)F)C[C@H]2CC)c(C(=O)N[C@H]2CCN(C)C2)n1` [Compound 1-215, 5-[(2R)-4-[4-chloro-2-(trifluoromethyl)benzoyl]-2-ethylpiperazin-1-yl]-2′-ethoxy-N-[(3S)-1-methylpyrrolidin-3-yl]-[2,3′-bipyridine]-6-carboxamide], the Ki was < 10 nM.
In the case of `CCOc1ncccc1-c1ccc(N2CCN(C(=O)c3ccc(Cl)cc3C(F)(F)F)C[C@H]2CC)c(C(=O)NC2CN(C)C2)c1` [Compound 1-216, 2-[(2R)-4-[4-chloro-2-(trifluoromethyl)benzoyl]-2-ethylpiperazin-1-yl]-5-(2-ethoxypyridin-3-yl)-N-(1-methylazetidin-3-yl)benzamide], the Ki is reported as < 10 nM.
In the case of `CCOc1ncccc1-c1ccc(N2CCN(C(=O)c3ccc(Cl)cc3C(F)(F)F)C[C@H]2CC)c(C(=O)NCCC2=NCCN2)c1F` [Compound 1-219, 6-[(2R)-4-[4-chloro-2-(trifluoromethyl)benzoyl]-2-ethylpiperazin-1-yl]-N-[2-(4,5-dihydro-1H-imidazol-2-yl)ethyl]-3-(2-ethoxypyridin-3-yl)-2-fluorobenzamide], the Ki is reported as < 10 nM.
`CCOc1ccccc1-c1ccc(N2CCN(C(=O)c3ccc(Cl)cc3C(F)(F)F)C[C@H]2CC)c(C(=O)NC2CNC2)n1` [Compound 1-220, N-(azetidin-3-yl)-3-[(2R)-4-[4-chloro-2-(trifluoromethyl)benzoyl]-2-ethylpiperazin-1-yl]-6-(2-ethoxyphenyl)pyridine-2-carboxamide] was tested, and the Ki was < 10 nM.
In the case of `CCOc1ccccc1-c1ccc(N2CCN(C(=O)c3ccc(Cl)cc3C(F)(F)F)C[C@H]2CC)c(C(=O)NC2CN(C)C2)n1` [Compound 1-221, 3-[(2R)-4-[4-chloro-2-(trifluoromethyl)benzoyl]-2-ethylpiperazin-1-yl]-6-(2-ethoxyphenyl)-N-(1-methylazetidin-3-yl)pyridine-2-carboxamide], the Ki is reported as < 10 nM.
For `CCOc1ncccc1-c1ccc(N2CCN(C(=O)c3ccc(Cl)cc3C(F)(F)F)C[C@H]2CC)c(C(=O)NCC2CNC2)n1` [Compound 1-222, N-[(azetidin-3-yl)methyl]-5-[(2R)-4-[4-chloro-2-(trifluoromethyl)benzoyl]-2-ethylpiperazin-1-yl]-2′-ethoxy-[2,3′-bipyridine]-6-carboxamide], the Ki was < 10 nM.
